From PubChem BioAssay (NCI)
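Five compound concentrations were applied to cells in 96-well plates for 48 hours; endpoints were derived by simple linear interpolation of the resulting dose-response curve. GI50: concentration for 50% inhibition of growth. TGI: concentration producing complete growth inhibition.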

Tests used:
Test in all cases: growth of human tumour cells (NCI), 48 h
OVCAR-4 ovarian = test system: OVCAR-4 ovarian
NCI-H23 lung = test system: NCI-H23 lung
EKVX NSCLC = test system: EKVX NSCLC
A498 renal = test system: A498 renal
HCT-116 colon = test system: HCT-116 colon
NCI-H460 lung = test system: NCI-H460 lung
HS 578T breast = test system: HS 578T breast
RPMI-8226 leukemia = test system: RPMI-8226 leukemia
BT-549 breast = test system: BT-549 breast
SK-MEL-28 melanoma = test system: SK-MEL-28 melanoma
MALME-3M melanoma = test system: MALME-3M melanoma
SF-268 CNS = test system: SF-268 CNS
MOLT-4 leukemia = test system: MOLT-4 leukemia
OVCAR-3 ovarian = test system: OVCAR-3 ovarian
T-47D breast = test system: T-47D breast
RXF 393 renal = test system: RXF 393 renal
HL-60(TB) leukemia = test system: HL-60(TB) leukemia
SF-295 CNS = test system: SF-295 CNS
SF-539 CNS = test system: SF-539 CNS
LOX IMVI melanoma = test system: LOX IMVI melanoma
SN12C renal = test system: SN12C renal
HCT-15 colon = test system: HCT-15 colon
M14 melanoma = test system: M14 melanoma
MCF7 breast = test system: MCF7 breast
UO-31 renal = test system: UO-31 renal
IGROV1 ovarian = test system: IGROV1 ovarian
COLO 205 colon = test system: COLO 205 colon
NCI-H226 lung = test system: NCI-H226 lung
OVCAR-5 ovarian = test system: OVCAR-5 ovarian

Structure (SMILES): Cc1ccc(/C=C(/C#N)n2nnc3cccc(F)c32)cc1
- GI50 (OVCAR-4 ovarian): 1010 nM
- TGI (OVCAR-4 ovarian): 33100 nM
- GI50 (NCI-H23 lung): 461 nM
- TGI (NCI-H23 lung): 12000 nM
- GI50 (EKVX NSCLC): 863 nM
- TGI (EKVX NSCLC): 18700 nM
- GI50 (A498 renal): 226 nM
- TGI (A498 renal): 877 nM
- GI50 (HCT-116 colon): 379 nM
- TGI (HCT-116 colon): 6540 nM
- GI50 (NCI-H460 lung): 350 nM
- TGI (NCI-H460 lung): 2130 nM
- GI50 (HS 578T breast): 373 nM
- TGI (HS 578T breast): > 36800 nM
- GI50 (RPMI-8226 leukemia): 391 nM
- GI50 (BT-549 breast): 634 nM
- TGI (BT-549 breast): 8990 nM
- GI50 (SK-MEL-28 melanoma): 902 nM
- TGI (SK-MEL-28 melanoma): 18100 nM
- GI50 (MALME-3M melanoma): 488 nM
- TGI (MALME-3M melanoma): 17600 nM
- GI50 (SF-268 CNS): 580 nM
- TGI (SF-268 CNS): 12500 nM
- GI50 (MOLT-4 leukemia): 394 nM
- TGI (MOLT-4 leukemia): > 100000 nM
- GI50 (OVCAR-3 ovarian): 227 nM
- TGI (OVCAR-3 ovarian): 536 nM
- GI50 (T-47D breast): 509 nM
- TGI (T-47D breast): > 100000 nM
- GI50 (RXF 393 renal): 201 nM
- TGI (RXF 393 renal): 563 nM
- GI50 (HL-60(TB) leukemia): 295 nM
- TGI (HL-60(TB) leukemia): 4420 nM
- GI50 (SF-295 CNS): 368 nM
- TGI (SF-295 CNS): 7390 nM
- GI50 (SF-539 CNS): 247 nM
- TGI (SF-539 CNS): 657 nM
- GI50 (LOX IMVI melanoma): 409 nM
- TGI (LOX IMVI melanoma): 1810 nM
- GI50 (SN12C renal): 485 nM
- TGI (SN12C renal): 12800 nM
- GI50 (HCT-15 colon): 240 nM
- TGI (HCT-15 colon): 8690 nM
- GI50 (M14 melanoma): 287 nM
- TGI (M14 melanoma): 22100 nM
- GI50 (MCF7 breast): 466 nM
- TGI (MCF7 breast): 16600 nM
- GI50 (UO-31 renal): 515 nM
- TGI (UO-31 renal): 11700 nM
- GI50 (IGROV1 ovarian): 453 nM
- TGI (IGROV1 ovarian): 10600 nM
- GI50 (COLO 205 colon): 387 nM
- TGI (COLO 205 colon): 3300 nM
- GI50 (NCI-H226 lung): 1760 nM
- TGI (NCI-H226 lung): 8310 nM
- GI50 (OVCAR-5 ovarian): 673 nM
